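Where inhibition never reached the appropriate level, the endpoint shown equals the highest concentration tested. Otherwise, values were interpolated linearly from a five-concentration, 48-hour dose response in 96-well plates. GI50: concentration for 50% inhibition of growth. TGI: concentration producing complete growth inhibition.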
Key:
Experiment in all cases: NCI-60 cell line screen, 48 h
OVCAR-8 ovarian = system: OVCAR-8 ovarian
HOP-62 NSCLC = system: HOP-62 NSCLC
HCC-2998 colon = system: HCC-2998 colon
K-562 leukemia = system: K-562 leukemia
HCT-116 colon = system: HCT-116 colon
U251 CNS = system: U251 CNS
SK-MEL-5 melanoma = system: SK-MEL-5 melanoma
SF-539 CNS = system: SF-539 CNS
HOP-92 NSCLC = system: HOP-92 NSCLC
HL-60(TB) leukemia = system: HL-60(TB) leukemia

Compound	GI50 (OVCAR-8 ovarian)	TGI (OVCAR-8 ovarian)	GI50 (HOP-62 NSCLC)	TGI (HOP-62 NSCLC)	GI50 (HCC-2998 colon)	TGI (HCC-2998 colon)	GI50 (K-562 leukemia)	TGI (K-562 leukemia)	GI50 (HCT-116 colon)	TGI (HCT-116 colon)	GI50 (U251 CNS)	TGI (U251 CNS)	GI50 (SK-MEL-5 melanoma)	TGI (SK-MEL-5 melanoma)	GI50 (SF-539 CNS)	TGI (SF-539 CNS)	GI50 (HOP-92 NSCLC)	TGI (HOP-92 NSCLC)	GI50 (HL-60(TB) leukemia)	TGI (HL-60(TB) leukemia)
C=C1C(=O)O[C@H]2[C@H]1CC/C(CNS(=O)(=O)c1ccc3ccccc3c1)=C\CC[C@@]1(C)O[C@@H]21	3.36 µM	12.6 µM	12.5 µM	29.6 µM	3680 nM	11.3 µM	691 nM	4.46 µM	879 nM	2.12 µM	8.29 µM	21.1 µM	2890 nM	9.67 µM	1730 nM	3.56 µM	1890 nM	6.34 µM	1630 nM	3.96 µM
O=C1CCC2CCc3cccc4oc1c2c34 (centres undefined)		> 100 µM		> 100 µM		> 100 µM		> 100 µM		> 100 µM		> 100 µM		> 100 µM		> 100 µM		98.6 µM		> 100 µM
CCc1ccc(-c2ccc(=O)n(-c3ccc(S(N)(=O)=O)cc3)n2)cc1	11 µM	> 100 µM	5.62 µM	30.5 µM		> 100 µM	297 nM	> 46.6 µM	951 nM	> 43.7 µM	3.36 µM	29 µM	659 nM	> 27.6 µM	3150 nM	32.1 µM	5550 nM	43.1 µM	365 nM	4.18 µM
CCN(CC)CC(=O)/C=C/c1ccc(C)cc1		43.8 µM		> 100 µM		31.7 µM		> 100 µM		32.4 µM		30.1 µM		33.1 µM		37 µM		92.4 µM		52 µM
Cn1ccnc1C(c1nccn1C)C(C)(C)[N+](=O)[O-]		> 100 µM		> 100 µM		> 100 µM		> 100 µM		> 100 µM		> 100 µM		> 100 µM		> 100 µM		> 100 µM		> 100 µM
Cc1nc2cncc(C#Cc3cncc(C(=O)Nc4ccc(CN5CCN(C)CC5)c(C(F)(F)F)c4)c3)c2nc1C	0.721 µM	8.88 µM	0.839 µM	5 µM	1330 nM	20.5 µM	5 nM	5.81 µM	248 nM	2.22 µM	0.559 µM	7.43 µM	839 nM	2.35 µM	207 nM	1.02 µM	204 nM	1.13 µM	237 nM	1.38 µM
CC1=C(C(=O)Nc2ccc3[nH]ncc3c2)C(c2ccc(F)cc2)NC(=O)N1 (centres undefined)	> 25 µM	> 25 µM	> 25 µM	> 25 µM	> 25000 nM	> 25 µM	> 25000 nM	> 25 µM	> 25000 nM	> 25 µM	> 25 µM	> 25 µM	> 25000 nM	> 25 µM	> 25000 nM	> 25 µM	425 nM	> 25 µM	> 25000 nM	> 25 µM
OCc1cccc(-c2ccc3ncc(-c4nc(NC5CC5)ncc4F)n3c2)c1	0.301 µM	> 100 µM	0.266 µM	2.7 µM	333 nM	2.17 µM	434 nM	> 100 µM	182 nM	> 100 µM	0.25 µM	> 100 µM	275 nM	0.821 µM	162 nM	0.454 µM	303 nM	0.901 µM	243 nM	0.708 µM

— PubChem BioAssay (NCI)
